Molecules are shown by their SMILES. Calls of active or inactive are those of the source.

One series relates to HEK293. In words: EBV LMP1 TES2 canonical NF-kB signalling blockers – cell-based, HEK293, luciferase, cherry-pick, dose response (AID 588343). In kind it is functional. Conditions: Homo sapiens.
The nature of series [1]: microbe, parasite or virus in culture. In kind it is functional. Conditions: Mycobacterium tuberculosis.
For series [2], the target named is Glucose-6-phosphate 1-dehydrogenase (Homo sapiens, UniProt P11413). In words: inhibition of Homo sapiens G6PD, dose series – biochemical, fluorescence, selectivity assay for P. falciparum G6PD inhibitor project, dose response (AID 504792). It is filed as functional.
Chain of Glucose-6-phosphate 1-dehydrogenase (P11413 whole entry): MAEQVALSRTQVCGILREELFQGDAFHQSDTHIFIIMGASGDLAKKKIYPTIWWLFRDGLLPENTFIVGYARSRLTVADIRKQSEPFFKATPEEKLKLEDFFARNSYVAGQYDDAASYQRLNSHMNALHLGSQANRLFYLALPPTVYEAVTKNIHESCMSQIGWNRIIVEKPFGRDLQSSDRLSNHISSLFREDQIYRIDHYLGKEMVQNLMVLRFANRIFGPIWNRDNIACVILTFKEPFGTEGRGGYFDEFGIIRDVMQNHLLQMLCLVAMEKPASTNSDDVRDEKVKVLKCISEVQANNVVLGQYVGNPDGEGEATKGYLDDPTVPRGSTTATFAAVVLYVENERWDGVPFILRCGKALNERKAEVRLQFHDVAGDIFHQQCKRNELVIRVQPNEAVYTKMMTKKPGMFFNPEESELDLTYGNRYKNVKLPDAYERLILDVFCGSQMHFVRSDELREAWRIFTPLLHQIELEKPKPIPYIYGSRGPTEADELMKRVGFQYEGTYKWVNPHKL
For the next series, the system named is H9c2. Briefly: cells. It is filed as functional, cell-based. Conditions: Rattus norvegicus, H9c2, Myocardium.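 Also: confirmatory concentration-response retest of ultra-high-throughput screening hits for modulation of myocardial damage; cell death induced by hydrogen peroxide oxidative stress; compound pretreatment for 60 min then peroxide exposure for 2 h; potency is for protecting the cells against peroxide damage rather than for killing them.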
For the next series, the target named is Cytochrome P450 2C9 (Homo sapiens, UniProt P11712).
Chain of Cytochrome P450 2C9 (P11712 whole entry): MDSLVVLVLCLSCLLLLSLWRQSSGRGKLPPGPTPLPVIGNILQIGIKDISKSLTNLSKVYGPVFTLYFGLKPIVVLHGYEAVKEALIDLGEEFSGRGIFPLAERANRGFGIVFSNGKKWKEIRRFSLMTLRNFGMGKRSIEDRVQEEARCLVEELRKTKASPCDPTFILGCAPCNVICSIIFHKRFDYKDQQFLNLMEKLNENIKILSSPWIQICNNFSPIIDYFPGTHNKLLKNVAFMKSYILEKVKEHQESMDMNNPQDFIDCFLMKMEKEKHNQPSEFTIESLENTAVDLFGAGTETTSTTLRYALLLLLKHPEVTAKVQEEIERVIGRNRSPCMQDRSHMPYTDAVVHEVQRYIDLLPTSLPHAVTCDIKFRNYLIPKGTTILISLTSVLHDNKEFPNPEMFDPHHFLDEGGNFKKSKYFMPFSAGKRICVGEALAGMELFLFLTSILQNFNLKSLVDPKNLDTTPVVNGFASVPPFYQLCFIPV
A short description of series [3]: viability of uninfected HEp-2 cells – cell-based, HTS, cytotoxicity control for RSV inhibitor project, dose response (AID 2410). It is filed as functional. Conditions: human respiratory syncytial virus.
The next series concerns the target Genome polyprotein (dengue virus type 2, UniProt P29990). In words: flavivirus cap methylation enzyme inhibition – biochemical, confirmation dose response, primary screen (AID 588689). In kind it is functional.
Series [4] deals with T1, High affinity choline transporter 1 (Homo sapiens, UniProt Q9GZV3).
T1 sequence (Q9GZV3 whole entry): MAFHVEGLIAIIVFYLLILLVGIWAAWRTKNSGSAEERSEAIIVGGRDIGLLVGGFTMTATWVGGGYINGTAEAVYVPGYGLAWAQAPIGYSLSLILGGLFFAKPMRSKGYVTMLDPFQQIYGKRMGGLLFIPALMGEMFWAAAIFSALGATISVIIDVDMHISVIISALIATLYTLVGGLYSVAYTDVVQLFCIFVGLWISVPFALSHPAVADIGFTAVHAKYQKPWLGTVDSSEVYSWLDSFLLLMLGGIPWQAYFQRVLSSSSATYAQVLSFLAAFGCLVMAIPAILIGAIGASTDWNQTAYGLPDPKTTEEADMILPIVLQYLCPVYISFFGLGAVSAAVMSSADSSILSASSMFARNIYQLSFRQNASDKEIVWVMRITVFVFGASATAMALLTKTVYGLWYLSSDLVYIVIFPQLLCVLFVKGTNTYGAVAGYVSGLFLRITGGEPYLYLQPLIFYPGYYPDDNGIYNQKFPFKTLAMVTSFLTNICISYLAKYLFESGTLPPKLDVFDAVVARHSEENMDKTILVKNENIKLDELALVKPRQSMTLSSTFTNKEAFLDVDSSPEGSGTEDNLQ
Briefly: human choline transporter blockers, potency – cell-based, 5-point CRC, membrane potential dye, dose response (AID 504840). It is filed as functional.

In the next series the test system is INS1. Briefly: INS-1E survival protection against cytokine death – cell-based, luminescence, retest, dose response (AID 449756).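 Also: cell death triggered by IL-1 beta plus TNF-alpha plus IFN-gamma mixture; protective hits raise ATP signal compared with cytokine alone wells.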 In kind it is functional. Conditions: Rattus norvegicus.
Series [5] in a line: reduction of Shn3 3'UTR-driven luciferase in osteoblasts – cell-based, Clone20 osteoblasts, firefly luciferase, cherry-picked, dose response (AID 624132).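 Also: firefly luciferase luminescence from reporter carrying the Shn3 3'UTR in osteoblasts.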 It is filed as functional.
Series [6] in a line: loss of viability in HepG2 cells – cell-based, CellTiter-Glo, cherry-picked, cytotoxicity control for Shn3 inhibitor project, dose response (AID 624134). It is filed as functional. On the technique in general: Cellular ATP, detected with luciferase, serves as a proxy for viable cell number.
Series [7] is described as follows: non-specific 3'UTR reporter inhibition in Clone20-Shn3RL – cell-based, Renilla luciferase, cherry-picked, counter-screen for Shn3 inhibitor project, dose response (AID 624133). In kind it is functional. (In general: A counterscreen serves to expose hits that act by an unwanted route or on another target.)
The target of another series is T2, Cytochrome P450 1A2 (Homo sapiens, UniProt P05177).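 Also: PubChem cytochrome P450 panel assay, CYP1A2 panel member.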
T2 sequence (P05177 whole entry): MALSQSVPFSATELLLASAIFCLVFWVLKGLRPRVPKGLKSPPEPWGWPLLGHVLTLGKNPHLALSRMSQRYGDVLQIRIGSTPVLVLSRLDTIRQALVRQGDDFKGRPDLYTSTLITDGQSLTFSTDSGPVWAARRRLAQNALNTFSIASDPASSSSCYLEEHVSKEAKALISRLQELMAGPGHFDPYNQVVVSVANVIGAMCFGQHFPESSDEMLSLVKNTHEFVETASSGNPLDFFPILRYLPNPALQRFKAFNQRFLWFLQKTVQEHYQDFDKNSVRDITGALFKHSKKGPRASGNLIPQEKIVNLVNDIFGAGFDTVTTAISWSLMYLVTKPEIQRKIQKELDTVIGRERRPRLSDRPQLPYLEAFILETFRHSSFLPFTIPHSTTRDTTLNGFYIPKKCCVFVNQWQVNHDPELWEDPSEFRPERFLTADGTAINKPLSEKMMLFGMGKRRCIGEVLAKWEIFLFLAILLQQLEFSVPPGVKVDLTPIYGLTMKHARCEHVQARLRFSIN

In another series the target is Cytochrome P450 3A4 (Homo sapiens, UniProt P08684).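 Also: CYP3A4 tested as one member of a cytochrome P450 panel screen.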
Chain of Cytochrome P450 3A4 (P08684 whole entry): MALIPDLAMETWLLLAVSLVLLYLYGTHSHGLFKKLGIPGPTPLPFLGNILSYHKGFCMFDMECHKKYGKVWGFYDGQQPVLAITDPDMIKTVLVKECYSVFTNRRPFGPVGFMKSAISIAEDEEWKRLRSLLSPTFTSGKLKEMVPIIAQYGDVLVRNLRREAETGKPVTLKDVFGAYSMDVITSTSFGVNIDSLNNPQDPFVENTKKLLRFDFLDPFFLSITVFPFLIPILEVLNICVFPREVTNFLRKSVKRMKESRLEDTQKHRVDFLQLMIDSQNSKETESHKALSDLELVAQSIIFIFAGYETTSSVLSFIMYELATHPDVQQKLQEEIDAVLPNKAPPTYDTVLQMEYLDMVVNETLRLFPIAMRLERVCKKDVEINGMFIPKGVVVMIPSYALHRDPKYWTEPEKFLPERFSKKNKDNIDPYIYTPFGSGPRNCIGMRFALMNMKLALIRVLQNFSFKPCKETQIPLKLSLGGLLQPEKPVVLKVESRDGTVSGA
For series [8], the target named is T3, Polyadenylate-binding protein 1 (Homo sapiens, UniProt P11940). Briefly: MLLE binding blockers, Cy5 peptide tracer – biochemical, fluorescence polarization, Cy5-PAM2 peptide, secondary, miRNA deadenylation inhibitor project, dose response (AID 602260). It is filed as functional. Conditions: read-out: IC50_Mean.
T3 sequence (P11940 whole entry, the tested form may be a part): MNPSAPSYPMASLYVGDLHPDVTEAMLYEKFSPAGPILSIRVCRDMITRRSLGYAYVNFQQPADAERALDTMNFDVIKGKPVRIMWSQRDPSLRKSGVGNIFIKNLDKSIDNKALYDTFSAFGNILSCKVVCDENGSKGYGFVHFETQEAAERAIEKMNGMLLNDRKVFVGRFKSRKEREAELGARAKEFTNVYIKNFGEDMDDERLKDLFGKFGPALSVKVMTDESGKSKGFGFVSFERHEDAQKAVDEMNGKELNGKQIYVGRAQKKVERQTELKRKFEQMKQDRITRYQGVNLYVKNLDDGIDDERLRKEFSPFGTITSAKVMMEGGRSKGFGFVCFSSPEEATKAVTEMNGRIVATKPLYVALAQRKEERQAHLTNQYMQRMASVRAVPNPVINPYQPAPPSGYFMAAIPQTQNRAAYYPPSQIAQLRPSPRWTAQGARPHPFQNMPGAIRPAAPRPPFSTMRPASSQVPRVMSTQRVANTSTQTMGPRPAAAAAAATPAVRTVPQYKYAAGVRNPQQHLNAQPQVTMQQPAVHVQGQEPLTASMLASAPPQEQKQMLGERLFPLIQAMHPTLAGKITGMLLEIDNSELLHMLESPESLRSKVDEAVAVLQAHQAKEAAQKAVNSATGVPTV
In series [9] the target is T3, Polyadenylate-binding protein 1. Briefly: MLLE domain peptide-binding blockers, IC50 – biochemical, fluorescence polarization, FITC-PAM2 peptide, dose response (AID 602259). It is filed as functional. Conditions: read-out: IC50_Mean. For orientation: Fluorescence polarisation rises when a labelled molecule tumbles more slowly, as on binding a larger partner.
For series [10], the target named is T4, Carboxy-terminal domain RNA polymerase II polypeptide A small phosphatase 1 (Homo sapiens, UniProt Q9GZU7).
T4 sequence (Q9GZU7 whole entry): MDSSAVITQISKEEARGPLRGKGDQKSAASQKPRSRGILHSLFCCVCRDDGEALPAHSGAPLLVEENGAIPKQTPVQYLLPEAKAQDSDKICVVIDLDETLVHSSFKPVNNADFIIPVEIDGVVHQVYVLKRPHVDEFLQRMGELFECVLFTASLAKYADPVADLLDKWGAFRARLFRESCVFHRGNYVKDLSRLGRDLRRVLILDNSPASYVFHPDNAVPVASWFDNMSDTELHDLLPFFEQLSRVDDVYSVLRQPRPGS
In words: CTDSP1 inhibitors, concentration-response, biochemical, absorbance readout, ultra-high-throughput screen actives (AID 540297). In kind it is functional.

Chain of Genome polyprotein (P29990 2492-3391 limits assumed): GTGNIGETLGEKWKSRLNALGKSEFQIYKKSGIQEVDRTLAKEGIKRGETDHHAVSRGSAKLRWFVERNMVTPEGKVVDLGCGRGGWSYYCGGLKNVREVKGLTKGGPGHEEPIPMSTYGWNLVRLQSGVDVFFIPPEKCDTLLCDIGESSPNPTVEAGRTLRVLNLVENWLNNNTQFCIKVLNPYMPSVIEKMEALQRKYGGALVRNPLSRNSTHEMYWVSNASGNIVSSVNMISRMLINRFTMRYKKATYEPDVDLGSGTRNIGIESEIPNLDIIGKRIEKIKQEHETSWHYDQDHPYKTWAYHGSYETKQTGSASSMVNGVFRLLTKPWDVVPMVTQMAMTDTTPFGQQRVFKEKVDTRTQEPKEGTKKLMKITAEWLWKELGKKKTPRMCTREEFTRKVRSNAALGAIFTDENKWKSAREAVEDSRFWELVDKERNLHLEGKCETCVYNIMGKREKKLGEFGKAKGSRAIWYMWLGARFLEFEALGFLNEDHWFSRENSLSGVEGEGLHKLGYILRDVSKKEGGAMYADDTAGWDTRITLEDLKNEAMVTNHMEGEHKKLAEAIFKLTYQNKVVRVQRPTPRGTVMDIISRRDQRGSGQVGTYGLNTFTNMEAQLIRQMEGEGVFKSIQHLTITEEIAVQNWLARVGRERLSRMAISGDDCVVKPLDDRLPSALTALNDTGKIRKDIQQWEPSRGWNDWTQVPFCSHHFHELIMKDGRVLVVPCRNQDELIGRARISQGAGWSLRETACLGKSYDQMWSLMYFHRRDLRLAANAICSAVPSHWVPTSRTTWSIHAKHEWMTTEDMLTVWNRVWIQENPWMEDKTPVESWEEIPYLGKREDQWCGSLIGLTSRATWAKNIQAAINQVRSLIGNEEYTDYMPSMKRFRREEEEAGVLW

By AC50 is commonly meant the concentration giving half of the maximal activity seen. On to `COc1ccc(NC(=O)c2ccc(-c3ccccc3)cc2)cc1S(=O)(=O)N1CCOCC1`, for which the AC50 in the series on HEK293 is 0.698 µM (active). With `c1ccc(-c2cn3c(n2)CCc2ccc4cccnc4c2-3)cc1`, the CC50 in series [1] is 22.1 µM (active). Also, the IC50 in [2] was > 80 µM (inactive); in the series with H9c2 it was > 79 µM (inactive). In the case of `C[C@@H]1O[C@H]1P(=O)([O-])[O-].[Na+].[Na+]`, the AC50 entry at Cytochrome P450 2C9 was “inconclusive”. For the compound `Cc1cccc(NC(=O)c2cc(NC(=O)C3CCCCC3C(=O)O)ccc2N2CCCCC2)c1` (stereo unspecified), the CC50 in series [3] was 15.7 µM (active). On Genome polyprotein, the IC50 is 37.7 µM (active). As for `Cc1nnc2oc(O)c(C)c(C)c1-2`, the AC50 entry on Cytochrome P450 2C9 is reported as “inconclusive”. Take `O=C(c1c(O)c2ccccc2oc1=O)C1CCCCC1`: in [4], the IC50 is 10 µM (active).

For `COc1ccc(C2(C(=O)Nc3ccc(S(=O)(=O)Nc4nc(C)cc(C)n4)cc3)CCCC2)cc1OC`, the IC50 in series [4] was 12.3 µM (active). As for `c1ccc(CN2CCN(c3nc4ccccc4n4cnnc34)CC2)cc1`, the IC50 in series [4] is 1.82 µM (active).

`CCc1c(C)sc(NC(=O)OC)c1C(N)=O`: the half-maximal activity concentration (AC50) result at Cytochrome P450 2C9 is “inconclusive”.

`CCOC(=O)c1oc2nc(CC(C)C)c3c(c2c1N)CCCC3`: the IC50 in series [4] was 12.9 µM (active). On to `O=C(O)/C=C/C(=O)c1ccc(O)cc1`, for which the IC50 at Genome polyprotein is > 100 µM (active). With `CN(C)C1=NC[C@H](Cc2ccccc2)N1CCCC1CCCCC1`, the AC50 is 7.42 µM (active) in the series with INS1, 1.47 µM (active) in series [5], 20.3 µM (active) in series [6] and 4.98 µM (active) in series [7].

Consider `COc1ccc(-n2c(C)c(C(C)=O)c3cc(OC(C)=O)ccc32)cc1`, for which the AC50 in the series with HEK293 was 4.43 µM (active). Also, in the series on H9c2, the IC50 was > 79 µM (inactive). In the case of `CCNc1ncc2nc(-c3ccccc3)c(=O)n(Cc3ccc(F)cc3)c2n1`, the AC50 on Cytochrome P450 1A2 is 3.16 µM (inconclusive); at Cytochrome P450 3A4, 20 µM (inconclusive); on Cytochrome P450 2C9, “inconclusive”. Regarding `CC(=O)NC1=NC(=O)CS1`, the AC50 on Cytochrome P450 1A2 was 0.2 µM (inconclusive); on Cytochrome P450 2C9, “inconclusive”.

In the case of `Cc1onc(-c2ccccc2Cl)c1C(=O)Nc1nnc(-c2cccc([N+](=O)[O-])c2)s1`, the IC50 in series [4] is 19.1 µM (active). `CC[C@]1(C(=O)OC)[C@H]2C(=O)N(Cc3ccccc3)C(=O)[C@H]2[C@H]2CN=C(SCc3ccc(Cl)cc3)N21`: the concentration at half-maximal activity (AC50) in the series on HEK293 is 3.31 µM (active). In the case of `Oc1cc(CNC2CCCCC2)c(O)cc1CNC1CCCCC1`, the values for the IC50 (on Genome polyprotein; in [8]; in series [9]) were 27.4 µM (active), > 66 µM (inactive) and 47.7 µM (inactive), respectively. For the compound `COc1ccc(C(=O)N[C@H]2CCCCNC2=O)cc1OC1CCN(C(C)C)CC1`, the IC50 in series [4] was 15.1 µM (active). On to `O=C(c1ccoc1)N1CCN(c2cc(-c3cccc(F)c3)nc3cc(-c4cccc(Cl)c4)nn23)CC1`, for which the results for the half-maximal activity concentration (AC50) in series [5], in series [6] and in series [7] were 9.78 µM (active), > 70 µM (inactive) and 12.9 µM (active), respectively. As for `CC(O)(c1ccncc1)c1nc(-c2cccc(C(F)(F)F)c2)cs1` (stereo unspecified), the figures for the AC50 in [5], in series [6] and in series [7] were 5.34 µM (active), > 70 µM (inactive) and 12.5 µM (active), respectively.

As to `C=CCn1cc(/C=N\NC(=O)c2cc3c(ccc4ccccc43)o2)c2ccccc21`, the AC50 entry at Cytochrome P450 2C9 is reported as “inconclusive”. `O=C(O)c1cccc2c1/C(=N/Nc1ccc([N+](=O)[O-])cc1[N+](=O)[O-])c1ccccc1-2`: the IC50 in series [4] is 15.2 µM (active); in series [10] it was 30.7 µM (active). Take `NCCSC[C@H](N)C(=O)O`: on Cytochrome P450 2C9, the AC50 entry was “inconclusive”.

(Values after ChEMBL document CHEMBL1201862, “PubChem BioAssay data set” (2004).)
